Test results taken from ChEMBL document CHEMBL3774345, “Synthesis of new diarylamides with pyrimidinyl pyridine scaffold and evaluation of their anti-proliferative effect on cancer cell lines” (Bioorg Med Chem Lett, 2016).

What was measured:
Assay type in all cases: functional
CCRF-CEM [1] = test: Cytotoxicity against human CCRF-CEM cells assessed as cell growth at 10^-7 M after 24 hrs by SRB assay; conditions: read-out: Activity
[2] = Cytotoxicity against human HOP92 cells assessed as cell growth at 10^-7 M after 24 hrs by SRB assay; conditions: HOP-92, 24 h, read-out: Activity
NCI-H522 = test: Cytotoxicity against human NCI-H522 cells assessed as cell growth at 10^-7 M after 24 hrs by SRB assay; conditions: NCI-H522, 24 h, read-out: Activity
[3] = Cytotoxicity against human MOLT4 cells assessed as cell growth at 10^-4 M after 24 hrs by SRB assay; conditions: MOLT-4, 24 h, read-out: Activity
[4] = Cytotoxicity against human SNB19 cells assessed as cell growth at 10^-7 M after 24 hrs by SRB assay; conditions: SNB-19, 24 h, read-out: Activity
[5] = Cytotoxicity against human LOXIMVI cells assessed as cell growth at 10^-7 M after 24 hrs by SRB assay; conditions: LOX IMVI, read-out: Activity
SK-MEL-28 = test: Cytotoxicity against human SK-MEL-28 cells assessed as cell growth at 10^-7 M after 24 hrs by SRB assay; conditions: SK-MEL-28, 24 h, read-out: Activity
[6] = Cytotoxicity against human OVCAR4 cells assessed as cell growth at 10^-7 M after 24 hrs by SRB assay; conditions: OVCAR-4, 24 h, read-out: Activity
[7] = Cytotoxicity against human OVCAR8 cells assessed as cell growth at 10^-7 M after 24 hrs by SRB assay; conditions: OVCAR-8, 24 h, read-out: Activity
[8] = Cytotoxicity against human NCI-ADR-RES cells assessed as cell growth at 10^-7 M after 24 hrs by SRB assay; conditions: read-out: Activity
786-0 [9] = test: Cytotoxicity against human 786-0 cells assessed as cell growth at 10^-7 M after 24 hrs by SRB assay; conditions: 786-0, 24 h, read-out: Activity
[10] = Cytotoxicity against human HOP62 cells after 24 hrs by SRB assay; conditions: HOP-62, 24 h
NCI-H226 [11] = test: Cytotoxicity against human NCI-H226 cells after 24 hrs by SRB assay; conditions: NCI-H226, 24 h
HT-29 = test: Cytotoxicity against human HT-29 cells after 24 hrs by SRB assay; conditions: HT-29, 24 h
NCI-H226 [12] = test: Cytotoxicity against human NCI-H226 cells assessed as cell growth at 10^-4 M after 24 hrs by SRB assay; conditions: NCI-H226, 24 h, read-out: Activity
[13] = Cytotoxicity against human SF539 cells assessed as cell growth at 10^-4 M after 24 hrs by SRB assay; conditions: SF-539, 24 h, read-out: Activity
U-251 [14] = test: Cytotoxicity against human U251 cells assessed as cell growth at 10^-4 M after 24 hrs by SRB assay; conditions: U-251, 24 h, read-out: Activity
MCF7 [15] = test: Cytotoxicity against human MCF7 cells assessed as cell growth at 10^-7 M after 24 hrs by SRB assay; conditions: MCF7, 24 h, read-out: Activity
CCRF-CEM [16] = test: Cytotoxicity against human CCRF-CEM cells assessed as cell growth at 10^-6 M after 24 hrs by SRB assay; conditions: read-out: Activity
K562 = test: Cytotoxicity against human K562 cells assessed as cell growth at 10^-6 M after 24 hrs by SRB assay; conditions: K562, 24 h, read-out: Activity
[17] = Cytotoxicity against human HOP92 cells assessed as cell growth at 10^-6 M after 24 hrs by SRB assay; conditions: HOP-92, 24 h, read-out: Activity
[18] = Cytotoxicity against human TK10 cells assessed as cell growth at 10^-4 M after 24 hrs by SRB assay; conditions: TK-10, 24 h, read-out: Activity
MCF7 [19] = test: Cytotoxicity against human MCF7 cells assessed as cell growth at 10^-6 M after 24 hrs by SRB assay; conditions: MCF7, 24 h, read-out: Activity
MDA-MB-231 = test: Cytotoxicity against human MDA-MB-231 cells assessed as cell growth at 10^-6 M after 24 hrs by SRB assay; conditions: MDA-MB-231, 24 h, read-out: Activity
[20] = Cytotoxicity against human HOP62 cells assessed as cell growth at 10^-8 M after 24 hrs by SRB assay; conditions: HOP-62, 24 h, read-out: Activity
NCI-H226 [21] = test: Cytotoxicity against human NCI-H226 cells assessed as cell growth at 10^-8 M after 24 hrs by SRB assay; conditions: NCI-H226, 24 h, read-out: Activity
[22] = Cytotoxicity against human HCT116 cells assessed as cell growth at 10^-8 M after 24 hrs by SRB assay; conditions: HCT-116, 24 h, read-out: Activity
[23] = Cytotoxicity against human SF539 cells assessed as cell growth at 10^-8 M after 24 hrs by SRB assay; conditions: SF-539, 24 h, read-out: Activity
U-251 [24] = test: Cytotoxicity against human U251 cells assessed as cell growth at 10^-8 M after 24 hrs by SRB assay; conditions: U-251, 24 h, read-out: Activity
[25] = Cytotoxicity against human HCC2998 cells assessed as cell growth at 10^-5 M after 24 hrs by SRB assay; conditions: HCC 2998, 24 h, read-out: Activity
SK-MEL-2 = test: Cytotoxicity against human SK-MEL-2 cells assessed as cell growth at 10^-5 M after 24 hrs by SRB assay; conditions: SK-MEL-2, 24 h, read-out: Activity
SK-MEL-5 = test: Cytotoxicity against human SK-MEL-5 cells assessed as cell growth at 10^-5 M after 24 hrs by SRB assay; conditions: SK-MEL-5, 24 h, read-out: Activity
[26] = Cytotoxicity against human OVCAR5 cells assessed as cell growth at 10^-5 M after 24 hrs by SRB assay; conditions: OVCAR-5, 24 h, read-out: Activity
786-0 [27] = test: Cytotoxicity against human 786-0 cells assessed as cell growth at 10^-5 M after 24 hrs by SRB assay; conditions: 786-0, 24 h, read-out: Activity
A498 = test: Cytotoxicity against human A498 cells assessed as cell growth at 10^-5 M after 24 hrs by SRB assay; conditions: A498, 24 h, read-out: Activity
SN12C = test: Cytotoxicity against human SN12C cells assessed as cell growth at 10^-5 M after 24 hrs by SRB assay; conditions: read-out: Activity
MCF7 [28] = test: Cytotoxicity against human MCF7 cells assessed as cell growth at 10^-5 M after 24 hrs by SRB assay; conditions: MCF7, 24 h, read-out: Activity
CCRF-CEM [29] = test: Cytotoxicity against human CCRF-CEM cells assessed as cell growth at 10^-4 M after 24 hrs by SRB assay; conditions: read-out: Activity
[30] = read-out: LC50 (the source's name)
[31] = read-out: pLC50 (the source's name) (converted)

O=C(Nc1cc(-c2cccnc2)nc(NCCCN2CCOCC2)n1)c1cc(Br)cc(C(F)(F)F)c1
growth at 0.1 µM (CCRF-CEM [1]): 105% | growth at 0.1 µM [2]: 80% | growth at 0.1 µM (NCI-H522): 92% | growth at 100 µM [3]: -67% | growth at 0.1 µM [4]: 98% | growth at 0.1 µM [5]: 92% | growth at 0.1 µM (SK-MEL-28): 91% | growth at 0.1 µM [6]: 90% | growth at 0.1 µM [7]: 101% | growth at 0.1 µM [8]: 99% | growth at 0.1 µM (786-0 [9]): 91% | GI50 ([10]; read-out: GI50): 2.71 µM | CC50 [10, 30]: 32.8 µM | TGI ([10]; read-out: TGI): 9.98 µM | GI50 ([10]; read-out: pGI50 (converted)): 2.69 µM | CC50 [10, 31]: 33.1 µM | TGI ([10]; read-out: pTGI (converted)): 10 µM | GI50 (NCI-H226 [11]; read-out: GI50): 9.3 µM | CC50 (NCI-H226 [11]; [30]): 52.3 µM | TGI (NCI-H226 [11]; read-out: TGI): 22.7 µM | GI50 (NCI-H226 [11]; read-out: pGI50 (converted)): 9.33 µM | CC50 (NCI-H226 [11]; [31]): 52.5 µM | TGI (NCI-H226 [11]; read-out: pTGI (converted)): 22.9 µM | GI50 (HT-29; read-out: GI50): 2.12 µM | CC50 (HT-29; [30]): 16.1 µM | TGI (HT-29; read-out: TGI): 4.95 µM | GI50 (HT-29; read-out: pGI50 (converted)): 2.14 µM | CC50 (HT-29; [31]): 16.2 µM | TGI (HT-29; read-out: pTGI (converted)): 4.9 µM | growth at 100 µM (NCI-H226 [12]): -89% | growth at 100 µM [13]: -85% | growth at 100 µM (U-251 [14]): -93% | growth at 0.1 µM (MCF7 [15]): 89% | growth at 1 µM (CCRF-CEM [16]): 103% | growth at 1 µM (K562): 88% | growth at 1 µM [17]: 75% | growth at 100 µM [18]: -98% | growth at 1 µM (MCF7 [19]): 77% | growth at 1 µM (MDA-MB-231): 87% | growth at 0.01 µM [20]: 94% | growth at 0.01 µM (NCI-H226 [21]): 92% | growth at 0.01 µM [22]: 102% | growth at 0.01 µM [23]: 95% | growth at 0.01 µM (U-251 [24]): 97% | growth at 10 µM [25]: -77% | growth at 10 µM (SK-MEL-2): 27% | growth at 10 µM (SK-MEL-5): -98% | growth at 10 µM [26]: 40% | growth at 10 µM (786-0 [27]): -80% | growth at 10 µM (A498): 13% | growth at 10 µM (SN12C): 44% | growth at 10 µM (MCF7 [28]): -3% | growth at 100 µM (CCRF-CEM [29]): -52%
